Like-named read-outs stand apart in the source and are kept apart here.
Key:
[1] = test system: Brown Norway rats, OVA sensitised and challenged; assay: Rat model of allergic asthma: BAL cellular inflammation; assay type: in vivo, Brown Norway rat; conditions: BAL 24 hrs after OVA challenge; i.t. dosing
Procedure: (§1) Male, adult, Brown Norway rats were obtained from Charles River Germany at a body weight range of 250-300 g. Animals were housed in temperature controlled individually ventilated cages in groups of 4 with food and water provided ad libitum. Animals underwent acclimatisation for at least 1 week prior to experimentation. Experiments were performed in accordance with the UK Home Office guidelines for animal welfare based on the Animals (Scientific Procedures) Act of 1986 and the ARRIVE guidelines (Fig. E2).
(§2) Initially a time course study was performed, followed by a characterisation study with compound & clinical comparator. For both studies, rats were sensitised on day 0, 14 and 21 by an intraperitoneal (i.p.) injection of 4 mL/kg (1 mL/rat) of ovalbumin (OVA;100 μg/rat) in Imject™ Alum (20 mg/rat aluminium hydroxide and 20 mg/rat magnesium hydroxide) or sham sensitised (Saline [Sal] in Imject™ Alum). On day 28 rats were challenged with 1% (w/v) aerosolised OVA in isotonic saline, or sham challenged with isotonic saline (30 mins).
Following blood collection, rats underwent tracheostomy and were cannulated. Rats were lavaged and bronchoalveolar lavage (BAL) fluid was collected (2 × 3 mL RPMI, 30 secs, 70% vol. retained). Slides were prepared using 100 μL of neat BAL, centrifuged (700 rpm, 5 mins, RT, low acceleration; Cytospin 2, Shandon, Runcorn, UK). 800 μL of neat BAL was collected and centrifuged (800×g, 10 mins, 4 °C). Supernatant was collected and stored (− 80 °C), and cell pellet was resuspended (200 μL, RPMI), total leukocytes were attained using a Sysmex XP-300 automated cell counter (Sysmex Ltd., Milton Keynes, UK). Remaining BAL was centrifuged (800×g, 10 mins, 4 °C) and supernatant collected and stored (− 80 °C).
BAL cytospin slides were placed in an automated stainer (Hematek 2000, Ames. Co., USA) and stained with a Modified-Wright stain (Siemens, Germany). Differential cell counts using a light microscope were performed based on morphological criteria were performed to determine percentages of macrophages/monocytes, lymphocytes, neutrophils & eosinophils. Total numbers of each distinct cell type were determined based on total leukocyte numbers.

PI3K pathway (pAkt) = assay: Rat model of allergic asthma: lung tissue pAkt (T308), target engagement; assay type: in vivo, Brown Norway rat; conditions: i.t. 1 hr before OVA challenge; AZD8154 0.02, 0.1, 0.3 mg/kg, budesonide 3 mg/kg; lung 2 hrs after challenge
Procedure: as §1
Initially a time course study was performed, followed by a characterisation study with compound & clinical comparator. […]
5 μL of supernatant (1:50 dilution) was taken for Bradford Assay which was run according to manufacturers’ instructions (BioRad, USA). […] Absorbance was measured using a spectrophotometer and total protein values interpolated to standard curve (595 nm; Spectromax, UK).
10 μg of protein from lung tissue extract were utilized in pAkt (T308); pSTAT3, pSTAT4 & STAT5a, b (Phospho-STAT Panel kit) MSD Assay plates (Meso Scale Delivery, USA) and run according to manufacturers’ instructions. Arbitrary electrochemiluminescence signals were read, the blank subtracted and values determined in each plate using a MSD S-Plex plate reader (Meso Scale Delivery, USA).

rat PI3Kγ = rat PI3Kγ (Rattus norvegicus, UniProt D3ZFJ0); assay: PI3K γ assay: CXCL1/CINC-1-stimulated CD11b expression on rat whole blood neutrophils (FACS); assay type: cell-based; conditions: mean ± SEM, n = 3
Procedure: PI3K γ assay: whole blood from male Sprague Dawley rat was collected in heparin coated tubes and pre-treated (1 hr., 37 °C, 5% CO2) with vehicle DMSO or PI3K inhibitors followed by stimulation with Rat CXCL1/CINC-1 (515-CN-050, R&D) at 500 ng/mL (EC80 determined in house; 1 hr., RT). Next, cells were stained with Fc block (550,273, BD bioscience, 1:100; 20 mins, RT), CD45R-B220-PeCy7 (HIS24) (25–0460-82, eBioscience, 1:100), CD43-PE (W3/13) (202,812, Biolegend, 1:100), HIS48-FITC (11–0570-82, eBioscience, 1:100), CD11b-APC (562,102, BD Bioscience, 1:100). Cells were lysed and fixed with BD FACS lysing solution (349,202, BD Biosciences; 45 mins, RT) before FACS acquisition (BD LSRFortessa™). Data were analysed using FlowJo 9.9 software (TreeStar). FACS gating strategy: lymphocytes (FSC-A vs SSC-A), doublets exclusion (FSC-W vs FSC-H), neutrophil identification B220-, HIS48hi, CD43hi, SSC-Ahi, geom. MFI for CD11b on neutrophils. IC50 values were determined in Graph Pad through a nonlinear fit on log transform data: log inhibitor vs response, variable slope, 4 parameters. Fraction unbound in diluted whole blood is calculated using the following equation: fu^′=DF·fub/1+DF-1·fub where fu’ is the fraction unbound in diluted whole blood; fub is the fraction unbound in undiluted whole blood; DF is the dilution factor. Fraction unbound in 100% whole blood (fub) is calculated as fup/BP, where fup is the experimentally determined fraction unbound in undiluted plasma and BP is the experimentally determined blood to plasma partition ratio of drug Table 1.

[2] = test system: Brown Norway rats, OVA sensitised and challenged; assay: Rat model of allergic asthma: late asthmatic response (Penh, whole body plethysmography); assay type: in vivo, Brown Norway rat; conditions: 1-6 hrs after OVA challenge; i.t. dosing
Procedure: as §1
as §2, with “On day 28 rats were challenged with 1% (w/v) aerosolised OVA in isotonic saline, or sham challenged with isotonic saline (30 mins).” left out
In both studies, 30 mins post-challenge, rats were placed unrestrained in Perspex plethysmographs connected to bias flow pumps (DSI Europe Ltd), with food and water ad libitum. 55 mins post-challenge, a five mins baseline recording was taken and the average penh and area under the curve (AUC) was recorded at 10 mins intervals for a total duration of 5 hrs and was used for analysis (DSI Europe Ltd).

rat PI3Kγ, sequence (D3ZFJ0 1-1102): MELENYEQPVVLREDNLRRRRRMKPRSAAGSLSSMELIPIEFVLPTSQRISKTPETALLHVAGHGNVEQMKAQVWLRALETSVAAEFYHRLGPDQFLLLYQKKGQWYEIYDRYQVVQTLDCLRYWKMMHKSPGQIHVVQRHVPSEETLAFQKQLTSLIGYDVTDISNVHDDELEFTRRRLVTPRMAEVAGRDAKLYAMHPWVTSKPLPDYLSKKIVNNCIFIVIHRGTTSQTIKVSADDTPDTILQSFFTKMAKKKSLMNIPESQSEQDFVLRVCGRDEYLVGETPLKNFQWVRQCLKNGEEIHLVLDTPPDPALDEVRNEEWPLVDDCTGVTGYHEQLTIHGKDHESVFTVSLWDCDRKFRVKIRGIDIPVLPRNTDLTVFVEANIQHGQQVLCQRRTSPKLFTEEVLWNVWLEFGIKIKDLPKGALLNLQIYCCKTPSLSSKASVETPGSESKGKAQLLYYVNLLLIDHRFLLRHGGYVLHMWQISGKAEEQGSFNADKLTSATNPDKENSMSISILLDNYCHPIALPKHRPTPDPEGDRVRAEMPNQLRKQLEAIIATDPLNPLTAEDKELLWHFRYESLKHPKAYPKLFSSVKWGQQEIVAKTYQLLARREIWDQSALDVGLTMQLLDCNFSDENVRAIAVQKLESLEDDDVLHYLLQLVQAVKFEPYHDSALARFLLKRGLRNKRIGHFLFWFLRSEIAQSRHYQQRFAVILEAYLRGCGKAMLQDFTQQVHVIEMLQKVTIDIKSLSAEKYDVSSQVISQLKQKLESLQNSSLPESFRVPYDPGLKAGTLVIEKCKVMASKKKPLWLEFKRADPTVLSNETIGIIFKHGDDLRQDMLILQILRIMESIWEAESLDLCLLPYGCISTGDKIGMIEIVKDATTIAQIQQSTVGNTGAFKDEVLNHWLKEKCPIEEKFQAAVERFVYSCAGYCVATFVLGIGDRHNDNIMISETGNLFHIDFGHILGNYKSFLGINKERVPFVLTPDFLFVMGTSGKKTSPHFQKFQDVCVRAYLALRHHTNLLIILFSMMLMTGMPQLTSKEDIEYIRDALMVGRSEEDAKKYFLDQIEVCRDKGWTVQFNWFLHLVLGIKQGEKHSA

Structure (SMILES): Cc1nc(Nc2cccc(N3CCCC3=O)n2)sc1-c1cc2c(c(S(C)(=O)=O)c1)C(=O)N([C@@H](C)C1CC1)C2 [AZD8154]
- BAL eosinophils [1]: statistically significant decrease
- BAL neutrophils [1]: statistically significant decrease
- lung tissue pAkt levels (PI3K pathway (pAkt)): dose related suppression
- IC50 (rat PI3Kγ; CD11b expression on neutrophils, read-out: rat γ total IC50): 28.7 ± 4.1 nM
- IC50 (rat PI3Kγ; corrected for protein binding in the assay, read-out: rat γ free IC50): 0.54 ± 0.08 nM
- LAR (Penh, AUC) [2]: statistically significant dose-dependent decrease

Reference: PMC11040934, “PI3Kγδ inhibition suppresses key disease features in a rat model of asthma” (Respiratory Research, 2024)
